In one test the test system is p53. In words: p53 activation in hDPSCs (FIG. 2, compound and concentration selection). The class given is cell-based, Human.
The target in another test is T1, MDM2 (Homo sapiens, UniProt Q00987).
T1 construct: evaluate the intracellular MDM2 protein degradation capacity; endogenous in cells; host or cells: human dental pulp stem cells (hDPSCs)
In words: MDM2 protein degradation by Western blot (SDS-PAGE) in hDPSCs. The class given is cell-based. To be noted: FIG. 2, selection among initially selected compounds. The procedure: Human dental pulp stem cell lines (hDPSCs) were treated with 14 types of synthesized MDM2-PROTACs (10 µM) for 1 hour and Western blot analysis using SDS-PAGE gel was performed to evaluate the intracellular MDM2 protein degradation capacity.
A general note: Immunoblotting shows a protein as a band on a membrane.

SMILES strings stand for the structures.

T1 sequence (Q00987 whole entry): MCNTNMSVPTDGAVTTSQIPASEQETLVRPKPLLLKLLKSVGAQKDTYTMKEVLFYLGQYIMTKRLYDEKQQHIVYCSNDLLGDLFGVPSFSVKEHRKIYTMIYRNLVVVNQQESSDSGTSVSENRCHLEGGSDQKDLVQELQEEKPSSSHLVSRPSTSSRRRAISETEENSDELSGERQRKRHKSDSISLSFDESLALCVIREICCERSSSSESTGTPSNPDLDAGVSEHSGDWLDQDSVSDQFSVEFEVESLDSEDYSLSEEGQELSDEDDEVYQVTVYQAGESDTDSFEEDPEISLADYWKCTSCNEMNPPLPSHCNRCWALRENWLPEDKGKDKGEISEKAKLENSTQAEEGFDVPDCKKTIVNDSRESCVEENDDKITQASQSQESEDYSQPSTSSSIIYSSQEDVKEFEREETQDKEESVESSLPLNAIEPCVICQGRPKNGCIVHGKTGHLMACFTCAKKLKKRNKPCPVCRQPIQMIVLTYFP

Take `COc1ccc(C2=NC(c3ccc(Cl)cc3)C(c3ccc(Cl)cc3)N2C(=O)N2CCN(CC(=O)NCCCCCCCC#Cc3cccc4c3C(=O)N(C3CCC(=O)NC3=O)C4=O)C(=O)C2)c(OC(C)C)c1` (stereo not drawn) [Compound 16b, 2-(4-(cis-4,5-bis(4-chlorophenyl)-2-(2-isopropoxy-4-methoxyphenyl)-4,5-dihydro-1H-imidazole-1-carbonyl)-2-oxopiperazin-1-yl)-N-(9-(2-(2,6-dioxopiperidin-3-yl)-1,3-dioxoisoindolin-4-yl)non-8-yn-1-yl) acetamide]: the p53 activation result in the test with p53 is reported as “activate p53”. The MDM2 degradation entry at MDM2 is “effectively degrade MDM2”.
In the case of `COc1ccc(C2=NC(c3ccc(Cl)cc3)C(c3ccc(Cl)cc3)N2C(=O)N2CCN(CC(=O)NCCCCCCCCOc3cccc4c3C(=O)N(C3CCC(=O)NC3=O)C4=O)C(=O)C2)c(OC(C)C)c1` (stereo not drawn) [Compound 6b, 2-(4-(cis-4,5-bis(4-chlorophenyl)-2-(2-isopropoxy-4-methoxyphenyl)-4,5-dihydro-1H-imidazole-1-carbonyl)-2-oxopiperazin-1-yl)-N-(8-((2-(2,6-dioxoopiperidin-3-yl)-1,3-dioxoisoindolin-4-yl)oxy)octyl)acetamide], the p53 activation result in the test on p53 was “activate p53”. Besides, the MDM2 degradation entry at MDM2 is on record as “effectively degrade MDM2”.
